Measurements: patent US20230405095A1, “DOSING REGIMEN” (VIIV HEALTHCARE UK (NO. 7) LIMITED, priority 2022, published 2023)
Where “and” joins values, the source holds several entries; their conditions need not be identical. Identical values can stand only once. Like-named read-outs stand apart in the source and are kept apart here.

Tests used:
[1] = Clinical PK of single SC injection of CAB200 with rHuPH20 (Studies 212482 and 218012); format: in vivo, healthy adult participants; details: SC with rHuPH20, dose level of 3200 mg or lower
Experimental: In a Phase 1 open-label, dose-escalation study to investigate the safety, tolerability and pharmacokinetics of single-dose administration of various CAB formulations with and without rHuPH20 in healthy adult participants, CAB200 at doses of 800, 1600 and 3200 mg have been administered with rHuPH20 (10,000 IU). rHuPH20 and CAB formulations were administered sequentially; subcutaneous (SC) administration by a health care provider (HCP) is via a butterfly needle and slow SC infusion in the abdominal SC tissue using a syringe pump.
A summary of CAB200 LA SC PK data with rHuPH20 is set forth in the Table below. • In Study 212482, single SC injection of CAB200 (2 mL/400 mg) with rHuPH20 (5000 units) was studied in Cohort 4 h. • In Study 218012, single SC injection of CAB200 with rHuPH20 was studied in cohorts A1 (4 mL/800 mg CAB200), A2 (8 mL/1600 mg CAB200) and A3 (16 mL/3200 mg CAB200). The dose of rHuPH20 was 10000 units. In both studies, rHuPH20 was injected first, followed by SC injection of CAB200.

[2] = Blood pharmacokinetics of cabotegravir after a single subcutaneous administration with or without rHuPH20; format: in vivo, male Sprague-Dawley rats; details: for Tmax / half-life / AUC(0-t) / Cmax / AUC (0-tlast) / T½: rat blood; for half-life: read-out: T½ (converted); for AUC(0-t): read-out: AUC (0-tlast)
Experimental: Cabotegravir (free acid) was supplied by the Department of Pharmaceutical Development, at GSK, Upper Providence (UP), as a wet bead milled suspension (WBM), of nominal 200 mg/mL active concentration, white to slightly pink in appearance to be used for subcutaneous (SC) injection. The test article was milled and supplied in an aqueous vehicle (see Table 1). The test article was filled into vials, stoppered, sealed and subjected to gamma sterilization at between 25-45 kGy.
Twelve male Sprague-Dawley rats (body weight approximately 275-300 grams upon arrival), from Charles River Laboratories, Raleigh, were used in this study. Rats were randomized by number one day prior to the start of study. All rats were euthanized at study end.
Dose volumes administered for cabotegravir (target concentration of 200 mg/mL) were based on animal weights obtained just prior to dosing to achieve a target dosage of 10 mg/kg (groups 1 and 2) and 5 mg/kg (groups 3 and 4). Test article was resuspended prior to dosing by inverting supplied vials and checking vial bottom for non-resuspended sediments. Syringes used to dose cabotegravir were weighed pre- and post-dose to determine exact amount of cabotegravir administered. Rats were lightly anesthetized under isoflurane for a short period to perform the dosing procedure. Injection sites were shaved immediately prior to dosing, wiped with alcohol and allowed to dry. For groups 1 and 3, the cabotegravir doses were injected subcutaneously into the lower scapular region. After removing the dosing needle, minimal, but adequate, pressure was applied to the skin at the injection site (i.e., to keep the site still and closed) for approximately 1 minute to enable coagulation and sealing of the puncture. The sites were observed immediately after the needle was withdrawn to note any dose leakage. For groups 2 and 4, the rHuPH20 was injected subcutaneously first (approximately 3000 units in 100 μL, these syringes were not weighed), immediately followed by the Cabotegravir injection with the goal of injecting both formulations in the same subcutaneous space of the lower scapular region. After removing the second dosing needle, minimal, but adequate, pressure was applied to the skin at the injection site (i.e., to keep the site still and closed) for approximately 1 minute to enable coagulation and sealing of the puncture. Any dose leakage was noted. Injection sites were monitored daily for the first week of study and then weekly for the remainder of the study and observations recorded. Body weights were recorded on day 0 and then weekly for the remainder of the study.
Blood samples were collected via lateral vein or tail tip amputation. On study Day 0, following subcutaneous injection, blood samples (approximately 75 μL/rat/time point) were collected into 500 μL K2 EDTA tubes at 1, 2, 4 and 8 hr. Samples were then collected at 24 hrs., 48 hrs., and on Days 3, 7, 14, 21, 28, 56 and 84. Exactly 75 μL of whole blood was pipetted into a new tube containing 75 μL of sterile water. Samples were vortexed and placed on dry ice immediately. Samples were stored at −80° C. until transferred to Yinghe Li (DMPK, US) for analysis.
Rat blood: water samples were analyzed for cabotegravir using an analytical method based on protein precipitation, followed by UPLC/MS/MS analysis. The lower limit of quantification (LLQ) for cabotegravir was 5 ng/mL using a 150 μL aliquot of rat blood: water with a higher limit of quantification (HLQ) of 20000 ng/mL. Analyst software version 1.7.1 was used to acquire and process LC-MS/MS data. The applicable analytical runs met all predefined run acceptance criteria.
Pharmacokinetic analysis of cabotegravir blood concentration-time data was performed by a non-compartmental method using Phoenix WinNonlin®, Version 8.1 software. All computations utilized nominal sampling times and doses for the study. […]

[3] = CAB Cmax safety threshold; format: in vivo; details: CAB plasma concentration; read-out: safety threshold: Cmax not associated with any toxicity
HIV-1 strains = details: integrase strand transfer inhibitor; broad range of HIV-1 strains; cited from earlier work
[4] = male, Sprague-Dawley, rat, whole blood, sc, 5 mg/kg, single SC 5 mg/kg, with rHuPH20 approx. 3000 units SC (Group 4), mean ± SD
[5] = male, Sprague-Dawley, rat, whole blood, sc, 5 mg/kg, single SC 5 mg/kg, without rHuPH20 (Group 3), individual animals
[6] = male, Sprague-Dawley, rat, whole blood, sc, 5 mg/kg, single SC 5 mg/kg, without rHuPH20 (Group 3), mean ± SD
[7] = male, Sprague-Dawley, rat, whole blood, sc, 10 mg/kg, single SC 10 mg/kg, with rHuPH20 approx. 3000 units SC (Group 2), mean ± SD
[8] = single SC 5 mg/kg, with rHuPH20 approx. 3000 units SC (Group 4), individual animals, 5 mg/kg
[9] = single SC 5 mg/kg, without rHuPH20 (Group 3), individual animals, 5 mg/kg
[10] = single SC 10 mg/kg, with rHuPH20 approx. 3000 units SC (Group 2), individual animals, 10 mg/kg
[11] = single SC 10 mg/kg, without rHuPH20 (Group 1), individual animals, 10 mg/kg

C[C@H]1CO[C@@H]2Cn3cc(C(=O)NCc4ccc(F)cc4F)c(=O)c(O)c3C(=O)N12 [Cabotegravir, N-((2,4-Difluorophenyl)methyl)-6-hydroxy-3-methyl-5,7-dioxo-2,3,5,7,11,11a hexahydro(1,3)oxazolo(3,2-a)pyrido(1,2-d)pyrazine-8-carboxamide]
CAB SC Cmax versus safety threshold [1]: < 22500 ng/mL | Tmax ([2]; male, Sprague-Dawley, rat, whole blood, sc, 5 mg/kg, single SC 5 mg/kg, with rHuPH20 approx. 3000 units SC (Group 4), individual animals, read-out: Tmax): 14.2 days | half-life ([2]; male, Sprague-Dawley, rat, whole blood, sc, 5 mg/kg, single SC 5 mg/kg, with rHuPH20 approx. 3000 units SC (Group 4), individual animals): 10 days | AUC(0-t) [2, 4]: 2800 ± 993 µg·h/mL | Cmax ([2]; male, Sprague-Dawley, rat, whole blood, sc, 5 mg/kg, single SC 5 mg/kg, with rHuPH20 approx. 3000 units SC (Group 4), mean ± SD, read-out: Cmax): 3800 ± 1600 ng/mL | half-life [2, 4]: 7.5 days | Tmax ([2]; male, Sprague-Dawley, rat, whole blood, sc, 5 mg/kg, single SC 5 mg/kg, with rHuPH20 approx. 3000 units SC (Group 4), median, read-out: Tmax): 14.2 days | AUC(0-t) [2, 5]: 4540 µg·h/mL | Cmax ([2]; male, Sprague-Dawley, rat, whole blood, sc, 5 mg/kg, single SC 5 mg/kg, without rHuPH20 (Group 3), individual animals, read-out: Cmax): 7600 ng/mL | Tmax ([2]; male, Sprague-Dawley, rat, whole blood, sc, 5 mg/kg, single SC 5 mg/kg, without rHuPH20 (Group 3), individual animals, read-out: Tmax): 14.2 days | half-life [2, 5]: 8.33 days | AUC(0-t) [2, 6]: 4400 ± 903 µg·h/mL | Cmax ([2]; male, Sprague-Dawley, rat, whole blood, sc, 5 mg/kg, single SC 5 mg/kg, without rHuPH20 (Group 3), mean ± SD, read-out: Cmax): 7000 ± 1500 ng/mL | half-life [2, 6]: 8.33 days | Tmax ([2]; male, Sprague-Dawley, rat, whole blood, sc, 5 mg/kg, single SC 5 mg/kg, without rHuPH20 (Group 3), median, read-out: Tmax): 14.2 days | AUC(0-t) ([2]; male, Sprague-Dawley, rat, whole blood, sc, 10 mg/kg, single SC 10 mg/kg, with rHuPH20 approx. 3000 units SC (Group 2), individual animals): 6280 µg·h/mL | Cmax ([2]; male, Sprague-Dawley, rat, whole blood, sc, 10 mg/kg, single SC 10 mg/kg, with rHuPH20 approx. 3000 units SC (Group 2), individual animals, read-out: Cmax): 10000 ng/mL | Tmax ([2]; male, Sprague-Dawley, rat, whole blood, sc, 10 mg/kg, single SC 10 mg/kg, with rHuPH20 approx. 3000 units SC (Group 2), individual animals, read-out: Tmax): 14.2 days | AUC(0-t) [2, 7]: 7730 ± 1930 µg·h/mL | Cmax ([2]; male, Sprague-Dawley, rat, whole blood, sc, 10 mg/kg, single SC 10 mg/kg, with rHuPH20 approx. 3000 units SC (Group 2), mean ± SD, read-out: Cmax): 9100 ± 2100 ng/mL | half-life [2, 7]: 15 days | Tmax ([2]; male, Sprague-Dawley, rat, whole blood, sc, 10 mg/kg, single SC 10 mg/kg, with rHuPH20 approx. 3000 units SC (Group 2), median, read-out: Tmax): 14.2 days | AUC(0-t) ([2]; male, Sprague-Dawley, rat, whole blood, sc, 10 mg/kg, single SC 10 mg/kg, without rHuPH20 (Group 1), individual animals): 5640 µg·h/mL | Tmax ([2]; male, Sprague-Dawley, rat, whole blood, sc, 10 mg/kg, single SC 10 mg/kg, without rHuPH20 (Group 1), individual animals, read-out: Tmax): 14.2 days | half-life ([2]; male, Sprague-Dawley, rat, whole blood, sc, 10 mg/kg, single SC 10 mg/kg, without rHuPH20 (Group 1), mean ± SD (animal 12 excluded)): 13.8 days | AUC(0-t) ([2]; male, Sprague-Dawley, rat, whole blood, sc, 10 mg/kg, single SC 10 mg/kg, without rHuPH20 (Group 1), mean ± SD): 7320 ± 2320 µg·h/mL | Cmax ([2]; male, Sprague-Dawley, rat, whole blood, sc, 10 mg/kg, single SC 10 mg/kg, without rHuPH20 (Group 1), mean ± SD, read-out: Cmax): 8000 ± 3500 ng/mL | Tmax ([2]; male, Sprague-Dawley, rat, whole blood, sc, 10 mg/kg, single SC 10 mg/kg, without rHuPH20 (Group 1), median, read-out: Tmax): 14.2 days | AUC (0-tlast) [2, 8]: 3348 µg·h/mL and 1654 µg·h/mL and 3397 µg·h/mL | Cmax [2, 8]: 3200 ng/mL and 2600 ng/mL and 5700 ng/mL | Tmax [2, 8]: 7.08 days | T½ [2, 8]: 160 h and 140 h | AUC (0-tlast) [2, 9]: 5221 µg·h/mL and 3432 µg·h/mL | Cmax [2, 9]: 5200 ng/mL | Tmax [2, 9]: 7.08 days | T½ [2, 9]: 220 h and 170 h | AUC (0-tlast) [2, 10]: 7008 µg·h/mL and 9916 µg·h/mL | Cmax [2, 10]: 6800 ng/mL | T½ [2, 10]: 210 h and 360 h and 510 h | AUC (0-tlast) [2, 11]: 9970 µg·h/mL and 6333 µg·h/mL | Cmax [2, 11]: 7100 ng/mL and 12000 ng/mL and 5100 ng/mL | T½ [2, 11]: 430 h and 230 h and 1100^b^ h | systemic exposure with versus without administration of rHuPH20 ([2]; rats, single SC 5 and 10 mg/kg, rHuPH20 3000 U): similar | systemic exposure as defined by AUC: dose proportionality ([2]; rats, single SC, target doses of 5 and 10 mg/kg): approximately dose proportional | Cmax [3]: 22500 ng/mL | potency (HIV-1 strains): subnanomolar
